In patent US20100069378A1, “SUBSTITUTED INDANYL SULFONAMIDE COMPOUNDS, THEIR PREPARATION AND USE AS MEDICAMENTS” (LABORATORIOS DEL DR. ESTEVE, S.A., priority 2006, published 2010) one finds inhibition data, which are given here for 16 compounds.

Structures can show the parent of a compound that is named as a salt.

In this experiment the target is T1, 5HT6 human recombinant receptor (Homo sapiens, UniProt P50406).
T1 construct: purchased Receptor Biology; host or cells: HEK-293 cell membranes (recombinant expression)
The experiment can be described thus: Binding Test to 5-HT6 Receptors ([3H]-LSD displacement, HEK-293 membranes). The conditions noted are these: [3H]-LSD 2.7 nM, 60 min, 37° C.; for inhibition at 0.1 µM: compound at 10^−7 M; for inhibition at 0.01 µM: compound at 10^−8 M. Here is the method: Binding Test to 5-HT6 Receptors
Membranes of HEK-293 cells expressing the 5HT6 human recombinant receptor were supplied by Receptor Biology. In these membranes the receptor concentration is 2.18 pmol/mg protein and the protein concentration is 9.17 mg/ml. The experimental protocol follows the method of B. L. Roth et al. [B. L. Roth, S. C. Craigo, M. S. Choudhary, A. Uluer, F. J. Monsma, Y. Shen, H. Y. Meltzer, D. R. Sibley: Binding of Typical and Atypical Antipsychotic Agents to 5-Hydroxytryptamine-6 and Hydroxytriptamine-7 Receptors. The Journal of Pharmacology and Experimental Therapeutics, 1994, 268, 1403] with slight modifications. The commercial membrane is diluted (dilution 1:40) with the binding buffer: 50 mM Tris-HCl, 10 mM MgCl2, 0.5 mM EDTA (pH 7.4). The radioligand used is [^3H]-LSD at a concentration of 2.7 nM with a final volume of 200 μl. Incubation is initiated by adding 100 μl of the membrane suspension (≈22.9 μg membrane protein), and continues for 60 minutes at a temperature of 37° C. Incubation ends by fast filtration in a Harvester Brandel Cell through glass fibre filters manufactured by Schleicher & Schuell GF 3362 pre-treated with a 0.5% polyethylenimine solution. The filters are washed three times with three millilitres of Tris-HCl 50 mM pH 7.4 buffer. The filters are transferred to phials and to each phial 5 ml of liquid scintillation cocktail Ecoscint H is added. The phials are allowed to reach equilibrium for several hours before being counted in a Wallac Winspectral 1414 scintillation counter. Non-specific binding is determined in the presence of 100 μM serotonin. The tests are performed in triplicate. The inhibition constants (Ki, nM) are calculated by non-linear regression analysis using the program EBDA/LIGAND [Munson and Rodbard, Analytical Biochemistry, 1980, 107, 220].

T1 sequence (P50406 whole entry): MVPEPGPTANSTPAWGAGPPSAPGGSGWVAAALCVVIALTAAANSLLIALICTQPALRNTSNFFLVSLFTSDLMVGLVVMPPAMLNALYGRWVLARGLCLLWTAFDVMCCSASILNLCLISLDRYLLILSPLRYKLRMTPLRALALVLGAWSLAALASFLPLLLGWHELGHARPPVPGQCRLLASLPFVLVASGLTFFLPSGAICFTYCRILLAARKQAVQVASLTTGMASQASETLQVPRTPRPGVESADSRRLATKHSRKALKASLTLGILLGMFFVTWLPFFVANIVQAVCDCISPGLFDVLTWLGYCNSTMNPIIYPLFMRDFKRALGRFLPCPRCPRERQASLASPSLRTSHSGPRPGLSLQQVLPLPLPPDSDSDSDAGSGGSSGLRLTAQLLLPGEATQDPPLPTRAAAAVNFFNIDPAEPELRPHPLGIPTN

One may read the inhibition as the change of the read-out against control, counted positive when it falls. Turning to `CN1CCN(C2CCc3ccc(NS(=O)(=O)c4c(Cl)nc5sccn45)cc32)CC1` (racemic) [Compound 4, N-[3-(4-methylpiperazin-1-yl)-2,3-dihydro-1H-inden-5-yl]-6-chloroimidazo[2,1-b][1,3]thiazole-5-sulfonamide], the inhibition at 0.1 µM is 83.4% and the inhibition at 0.01 µM worked out at 63%.
With `CN1CCN(C2CCc3ccc(NS(=O)(=O)c4ccc5ccccc5c4)cc32)CC1` (centres unmarked) [Compound 2, N-[3-(4-methylpiperazin-1-yl)-2,3-dihydro-1H-inden-5-yl]naphtalene-2-sulfonamide], the inhibition at 0.1 µM is 89.1% and the inhibition at 0.01 µM was 71.6%.
Consider `Cc1c(S(=O)(=O)Nc2ccc3c(c2)C(N2CCN(C)CC2)CC3)sc2ccc(Cl)cc12` (centres unmarked) [Compound 3, N-[3-(4-methylpiperazin-1-yl)-2,3-dihydro-1H-inden-5-yl]-5-chloro-3-methylbenzo[b]thiophene-2-sulfonamide], for which the inhibition at 0.1 µM worked out at 87.9% and the inhibition at 0.01 µM came to 55.7%.
Take `O=S(=O)(Nc1ccc2c(c1)C(N1CCNCC1)CC2)c1c(Cl)nc2sccn12` (centres unmarked) [Compound 5, N-[3-(piperazin-1-yl)-2,3-dihydro-1H-inden-5-yl]-6-chloroimidazo[2,1-b][1,3]thiazole-5-sulfonamide]: the inhibition at 0.1 µM is 85.6% and the inhibition at 0.01 µM came to 63.6%.
Take `N=C(N)N/N=C1/CCc2ccc(NS(=O)(=O)c3ccc4ccccc4c3)cc21` [Compound 8, 2-{6-[(2-naphthylsulfonyl)amino]-2,3-dihydro-1H-inden-1-ylidene}hydrazinecarboximidamide hydrochloride]: the inhibition at 0.1 µM was found to be 82.2% and the inhibition at 0.01 µM amounted to 56.1%.
Consider `N=C(N)N/N=C1/CCc2ccc(NS(=O)(=O)c3c(Cl)nc4sccn34)cc21` [Compound 9, 2-(6-{[(6-chloroimidazo[2,1-b][1,3]thiazol-5-yl)sulfonyl]amino}-2,3-dihydro-1H-inden-1-ylidene)hydrazinecarboximidamide], for which the inhibition at 0.1 µM is 89.6% and the inhibition at 0.01 µM turned out to be 84.7%.
For `CC1Cc2ccc(NS(=O)(=O)c3c(Cl)nc4sccn34)cc2/C1=N\NC(=N)N` (centres unmarked) [Compound 11, 2-(6-{[(6-chloroimidazo[2,1-b][1,3]thiazol-5-yl)sulfonyl]amino}-2-methyl-2,3-dihydro-1H-inden-1-ylidene)hydrazinecarboximidamide] the same measures were 91.1% and 84.7%.
Take `CN1CCN(C2CCc3cc(NS(=O)(=O)c4c(Cl)nc5sccn45)ccc32)CC1` (centres unmarked) [Compound 14, 6-chloro-N-[1-(4-methylpiperazin-1-yl)-2,3-dihydro-1H-inden-5-yl]imidazo[2,1b][1,3]thiazole-5-sulfonamide]: the inhibition at 0.1 µM is 85.8% and the inhibition at 0.01 µM amounted to 75.5%.
Consider `CN1CCN(C2CC(C)(C)c3ccc(NS(=O)(=O)c4c(Cl)nc5sccn45)cc32)CC1` (centres unmarked) [Compound 15, 6-chloro-N-[1,1-dimethyl-3-(4-methylpiperazin-1-yl)-2,3-dihydro-1H-inden-5-yl]imidazo[2,1-b][1,3]thiazole-5-sulfonamide], for which the inhibition at 0.1 µM turned out to be 30.3% and the inhibition at 0.01 µM is -6.6%.
On to `CN1CCN(C2CCc3ccc(N(C)S(=O)(=O)c4c(Cl)nc5sccn45)cc32)CC1` (centres unmarked) [Compound 16, 6-chloro-N-methyl-N-[3-(4-methylpiperazin-1-yl)-2,3-dihydro-1H-inden-5-yl]imidazo[2,1-b][1,3]thiazole-5-sulfonamide], for which the inhibition at 0.1 µM was found to be 72.7% and the inhibition at 0.01 µM was determined as 29%.
Turning to `CC1(C)CC(=NNC(=N)N)c2cc(NS(=O)(=O)c3c(Cl)nc4sccn34)ccc21` [Compound 20, 2-(6-{[(6-chloroimidazo[2,1-b][1,3]thiazol-5-yl)sulfonyl]amino}-3,3-dimethyl-2,3-dihydro-1H-inden-1-ylidene)hydrazinecarboximidamide hydrochloride], the inhibition at 0.1 µM was determined as 87.7% and the inhibition at 0.01 µM turned out to be 77.2%.
The corresponding values for `N=C(N)NN=C1CCc2cc(NS(=O)(=O)c3c(Cl)nc4sccn34)ccc21` [Compound 21, 2-(5-{[(6-chloroimidazo[2,1-b][1,3]thiazol-5-yl)sulfonyl]amino}-2,3-dihydro-1H-inden-1-ylidene)hydrazinecarboximidamide hydrochloride] are 86.9% and 78.1%.
Turning to `CN(c1ccc2c(c1)/C(=N\NC(=N)N)CC2)S(=O)(=O)c1c(Cl)nc2sccn12` [Compound 22, 2-(6-{[(6-chloroimidazo[2,1-b][1,3]thiazol-5-yl)sulfonyl](methyl)amino}-2,3-dihydro-1H-inden-1-ylidene)hydrazinecarboximidamide hydrochloride], the inhibition at 0.1 µM is 89.2% and the inhibition at 0.01 µM was found to be 83.9%.
Take `CN1CCOc2cc(S(=O)(=O)Nc3ccc4c(c3)/C(=N\NC(=N)N)CC4)ccc21` [Compound 23, 2-(6-{[(4-methyl-3,4-dihydro-2H-1,4-benzoxazine-7-yl)sulfonyl]amino}-2,3-dihydro-1H-inden-1-ylidene)hydrazinecarboximidamide hydrochloride]: the inhibition at 0.1 µM was 87.3% and the inhibition at 0.01 µM is 69.3%.
For `O=S(=O)(Nc1ccc2c(c1)C(=NNC1=NCCN1)CC2)c1c(Cl)nc2sccn12` [Compound 24, 6-chloro-N-[3-(4,5-dihydro-1H-imidazol-2-ylhydrazono)-2,3-dihydro-1H-inden-5-yl]imidazo[2,1-b][1,3]thiazole-5-sulfonamide hydrochloride] the same measures were 87.7% and 83.3%.
As for `CN1CCOc2cc(S(=O)(=O)Nc3ccc4c(c3)C(=NNC3=NCCN3)CC4)ccc21` [Compound 26, N-[3-(4,5-dihydro-1H-imidazol-2-ylhydrazono)-2,3-dihydro-1H-inden-5-yl]-4-methyl-3,4-dihydro-2H-1,4-benzoxazine-7-sulfonamide hydrochloride], the inhibition at 0.1 µM is 84.6% and the inhibition at 0.01 µM came out at 51%.
